Data from patent US20240228518A1, “NOVEL ORGANOTIN SILICATE COMPOUNDS, PREPARATION METHODS THEREOF AND PHOTORESIST COMPOSITION CONTAINING THE SAME” (JSI SILICONE CO., priority 2022, published 2024).

What was measured:
[1] = Solubility experiment in various solvents; format: physicochemical
Text: [Experimental Example 1] Solubility Experiment of tetrakis(triphenylstannyl) Silicate
For manufacturing a thin film including the tetrakis(triphenylstannyl) silicate compound prepared in Example 1, solubility in various solvents was experimented and is shown in the following Tables 2 and 3: […]

[2] = Stability in water (precipitation) of solution with acetic acid; format: physicochemical
Method: Since the photoresist composition included acetic acid, stability of tetrakis(triacetoxystannyl) silicate in water was able to be improved. When water was added at 5% to a 5% tetrakis(triacetoxystannyl) silicate solution, it was confirmed that precipitation occurred immediately. However, when acetic acid was added, precipitation was able to be prevented. It was confirmed that precipitation occurred after 3 minutes in a 10% acetic acid solution, after 3 hours in a 20% solution, and after 5 days in a 30% solution. Besides, the amount of precipitation was decreased as the acetic acid was added. Regarding a large amount of acetic acid, since a hydrolysis rate of an acetoxy group decreased according to le Chatelier's law, stability in water was improved.

For `c1cc[c]([Sn]([O][Si]([O][Sn]([c]2ccccc2)([c]2ccccc2)[c]2ccccc2)([O][Sn]([c]2ccccc2)([c]2ccccc2)[c]2ccccc2)[O][Sn]([c]2ccccc2)([c]2ccccc2)[c]2ccccc2)([c]2ccccc2)[c]2ccccc2)cc1` [Example 1, tetrakis(triphenylstannyl) silicate], the Solubility ([1]; Chloroform) was “highest solubilites and ◯”, the Solubility ([1]; Ethyl lactate (EL)) was “Δ” and the Solubility ([1]; THF) was “highest solubilites and ◯”. For the same molecule, the Solubility ([1]; gamma-Butyrolactone (GBL)) was “Δ”.

With `CC(=O)[O][Sn]([O]C(C)=O)([O]C(C)=O)[O][Si]([O][Sn]([O]C(C)=O)([O]C(C)=O)[O]C(C)=O)([O][Sn]([O]C(C)=O)([O]C(C)=O)[O]C(C)=O)[O][Sn]([O]C(C)=O)([O]C(C)=O)[O]C(C)=O` [Example 14, tetrakis(triacetoxystannyl) silicate] the “Time until precipitation occurred” value ([2]; water added at 5% to 5% solution, no acetic acid) was “immediately”, the “Time until precipitation occurred” value ([2]; water added, 10% acetic acid solution) was 3 min and the “Time until precipitation occurred” value ([2]; water added, 20% acetic acid solution) was 180 min. The “Time until precipitation occurred” value ([2]; water added, 30% acetic acid solution) was 7200 min.
